One assay concerns tetrabenazine. The assay can be described thus: Anti-tetrabenazine (TB) test, anti-depressant activity: photocell activity counts after tetrabenazine. In kind it is in vivo, Male Swiss-Webster mice. The note with it: 4 h before tetrabenazine 50 mg./kg. i.p. On the procedure:
The test procedure used to determine the anti-depressant activity of the compounds of the invention is described as follows: Male Swiss-Webster mice (Taconic Farms) weighing from 19-24 g. were divided into four groups of nine to ten mice per group. […] The fourth group received the vehicle only. Four hours following medication, all the control and the test animals were medicated with 50 mg./kg. (i.p.) of tetrabenazine and were placed in a photocell activity cage [described by Harris et al., Psychon. Sci., 4, 267 (1966)] equipped with a digital counter to record the number of times that a light beam impinging on a photocell is interrupted during the test period. Beginning thirty minutes after tetrabenazine medication, the photocell units were activated and the photocell counts recorded over a fifty minute period.

The test system of assay [1] is acetylcholine-induced abdominal constriction. The assay can be described thus: Acetylcholine-induced abdominal constriction test (Ach), analgesic activity. The class given is in vivo, mice. The note with it: for ED50: Mus musculus. From the text: (§1) The test procedures used to determine the analgesic activities of the compounds of the invention have been described in detail in the prior art and are as follows: The acetylcholine-induced abdominal constriction test, which is a primary analgesic screening test to measure the ability of a test agent to suppress acetylcholine-induced abdominal constriction in mice described by Collier et al., Brit. J. Pharmacol. Chemotherap. 32, 295 (1968) and the phenyl p-quinone-induced writhing test, also a primary analgesic screening test, designed to measure the ability of a test agent to prevent phenyl p-quinone-induced writhing in mice, described by Pearl and Harris, J. Pharmacol. Exptl. Therap. 154, 319-323 (1966).

The conditions of assay [2]: Rosenthal, 1953; cited from earlier work.
The conditions of assay [3]: Buchi et al., 1955; cited from earlier work.
The subject of assay [4] is phenyl p-quinone-induced writhing. In words: Phenyl p-quinone-induced writhing test (PPQ), analgesic activity. The class given is in vivo, mice. The note with it: Mus musculus, po.
Source text: as §1
For orientation: In writhing tests, fewer writhes than in controls are read as antinociception.

Setting [5] is: Tested at 4, 16 and 64 mg./kg. (p.o.), activity = significant difference, 0.05 level or less.

By ED50 is commonly meant the dose that gives a 50% effect, or the effect in half of the subjects. The low end stands for an effect at a small dose, the high end for a need for a large dose.

Turning to `CCN(CC)CCCn1cc(-c2ccccc2)c(-c2ccccc2)n1.Cl` [Example 4, 1-[3-(N,N-diethylamino)propyl]-3,4-diphenyl-1H-pyrazole hydrochloride], the “TB (anti-tetrabenazine activity)” value with tetrabenazine (setting [5]) is “Inac”. This compound also showed an ED50 in assay [1] (sc) of 2.2 mg/kg.

Regarding `NCCn1nc(-c2ccccc2)cc1-c1ccccc1` [1-(2-aminoethyl)-3,5-diphenyl-1H-pyrazole], the local anesthetic activity result in assay [2] is given as “having local anesthetic activity”.

As to `CNCCCn1cc(-c2ccccc2)c(-c2ccccc2)n1.Cl` [Example 1B, 1-[3-(N-methylamino)propyl]-3,4-diphenyl-1H-pyrazole hydrochloride], the “TB (anti-tetrabenazine activity)” value in the assay with tetrabenazine (at 4 mg./kg.) was “Inac”; in the assay on tetrabenazine (at 16 and 64 mg./kg.) it was “Act”.

For `Cc1cn(CCN(C)C)nc1-c1ccccc1` [1-(2-dimethylaminoethyl)-3-phenyl-4-methyl-1H-pyrazole], in assay [3], the analgesic activity result is listed as “analgesic activity is asserted”.

Take `Cl.Cl.NCCCn1cc(-c2ccccc2)c(-c2ccccc2)n1` [Example 1A, 1-(3-aminopropyl)-3,4-diphenyl-1H-pyrazole dihydrochloride]: the “TB (anti-tetrabenazine activity)” value in the assay with tetrabenazine (setting [5]) was “Inac”. In addition, the ED50 in assay [1] (sc) was found to be 11 mg/kg.

Take `CN(C)CCCn1cc(-c2ccccc2)c(-c2ccccc2)n1.Cl.Cl` [Example 2, 1-[3-(N,N-dimethylamino)propyl]-3,4-diphenyl-1H-pyrazole dihydrochloride]: the “TB (anti-tetrabenazine activity)” value is “Inac” with tetrabenazine (at 2 mg./kg.); “Act” in the assay on tetrabenazine (at 4, 8 and 16 mg./kg.).

For `CCN(CC)CCn1cc(-c2ccccc2)c(-c2ccccc2)n1.Cl` [Example 3, 1-[2-(N,N-diethylamino)ethyl]-3,4-diphenyl-1H-pyrazole hydrochloride], in the assay with tetrabenazine (setting [5]), the “TB (anti-tetrabenazine activity)” value is recorded as “Inac”. The ED50 in assay [4] was found to be 90 mg/kg; in assay [1] (po), 29 mg/kg. Besides, the Ach % effect in assay [1] (10 mg./kg. s.c.) came out at 53%; in assay [1] (50 mg./kg. s.c.), 67%; in assay [1] (100 mg./kg. s.c.) it was 60%.
